Article PMC7932555, “A diffusible signal factor of the intestine dictates Salmonella invasion through its direct control of the virulence activator HilD” (PLoS Pathogens, 2021)
Positions count from the first letter of the chain named.

Tests used:
HilD^K293A = molecular target: T1, HilD^K293A (Salmonella typhimurium, UniProt P0CL08, K293A); assay: ELISA binding of fatty acid to HilD K293A
T1 construct: made in house; host or cells: E. coli BL21 (DE3)
T1 sequence (P0CL08 1-309 K293A): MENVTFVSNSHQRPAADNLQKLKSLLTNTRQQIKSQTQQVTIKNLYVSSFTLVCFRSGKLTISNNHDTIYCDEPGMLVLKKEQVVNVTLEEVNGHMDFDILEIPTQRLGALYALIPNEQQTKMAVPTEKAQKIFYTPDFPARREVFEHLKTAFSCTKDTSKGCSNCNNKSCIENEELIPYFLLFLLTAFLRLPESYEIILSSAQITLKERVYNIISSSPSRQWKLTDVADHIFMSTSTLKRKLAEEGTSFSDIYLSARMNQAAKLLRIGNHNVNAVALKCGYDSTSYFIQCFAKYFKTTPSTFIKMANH
Protocol: hilD or its mutated sequences were amplified and cloned into pET15b(+) under an N-terminal 6xHis tag. The constructs were transformed into E. coli BL21 (DE3) for expression. Transformants were induced with 5 mM IPTG for 4 hours. Cultures were centrifuged, lysed and treated with TALON beads as described above. Bound protein was eluted by applying 1 ml elution buffer to the columns. Elution was confirmed by SDS-PAGE. Following confirmation, eluted samples were dialyzed overnight in dialysis buffer (50 mM sodium phosphate, 300 mM NaCl, 10% glycerol). Protein concentration and quality were assessed by Bradford estimation and SDS-PAGE.
96-well polystyrene plates were coated with 10 μM fatty acid in coating buffer (0.05 M sodium carbonate-bicarbonate, pH 9.3) and incubated overnight at 4°C. Wells were washed three times with PBS, followed by addition of blocking buffer (1% Ficoll 400 in PBS). After blocking, wells were washed three times with PBS, and different concentrations of proteins in blocking buffer were added and incubated at room temperature for 2 hours. […] After color development, reaction was stopped with 1N sulfuric acid and read spectrophotometrically at 490 nm. Binding was analyzed in GraphPad Prism.
All experiments were repeated twice and data of representative experiment have been shown. Kd was calculated by using Total One-Site binding in GraphPad Prism. […]

HilD [1] = molecular target: T2, HilD (Salmonella typhimurium, UniProt P0CL08, Q290A); assay: HilD half-life (degradation) assay by western blot; format: cell-based; details: HilD Q290A-3XFLAG; 20 μM fatty acid
T2 construct: hilD with a C-terminal 3XFLAG tag was cloned into pWSK29 under control of the tetRA promoter; expressed in transfected cells; host or cells: Salmonella Typhimurium strain carrying pWSK29-PtetRA-hilD-3XFLAG (background with chromosomal hilD, hilC and rtsA null)
T2 sequence (P0CL08 1-309 Q290A): T1 sequence (P0CL08 1-309 K293A) with Q290A, A293K
Protocol: (§1) The HilD half-life was assessed as previously described. Salmonella strains having plasmids with tetracycline-inducible hilD or its mutated sequence with a C-terminal 3XFLAG tag and a sipB::lacZ fusion (for invasion gene expression assessment) were grown overnight and then diluted 1:100 into LB buffered with 100 mM MOPS (pH 6.7) with appropriate antibiotics and fatty acids or control solvents. After 2 hours of growth, aliquots were collected to quantitate sipB::lacZ expression in a β-galactosidase assay. Individual cultures were then equilibrated to an OD600 of 1.0 to ensure equal density at the half-life assay beginning point. New protein production was halted by addition of a cocktail of antibiotics (rifampin, streptomycin and spectinomycin). These cultures were incubated at 37°C and aliquots were collected every 30 minutes for 2 hours. Samples were lysed in 5X sample buffer, boiled, and immunoblotted with an anti-FLAG antibody to monitor HilD.

HilD [2] = molecular target: T3, HilD (Salmonella typhimurium, UniProt P0CL08, K294A); assay: HilD half-life (degradation) assay by western blot; format: cell-based; details: HilD K294A-3XFLAG; 20 μM fatty acid
T3 construct: hilD with a C-terminal 3XFLAG tag was cloned into pWSK29 under control of the tetRA promoter; expressed in transfected cells; host or cells: Salmonella Typhimurium strain carrying pWSK29-PtetRA-hilD-3XFLAG (background with chromosomal hilD, hilC and rtsA null)
T3 sequence (P0CL08 1-309 K294A): T1 sequence (P0CL08 1-309 K293A) with A293K, K294A
Protocol: as §1

HilD [3] = molecular target: T4, HilD (Salmonella typhimurium, UniProt P0CL08, K43A); assay: HilD half-life (degradation) assay by western blot; format: cell-based; details: HilD K43A-3XFLAG; 20 μM fatty acid
T4 construct: hilD with a C-terminal 3XFLAG tag was cloned into pWSK29 under control of the tetRA promoter; expressed in transfected cells; host or cells: Salmonella Typhimurium strain carrying pWSK29-PtetRA-hilD-3XFLAG (background with chromosomal hilD, hilC and rtsA null)
T4 sequence (P0CL08 1-309 K43A): T1 sequence (P0CL08 1-309 K293A) with K43A, A293K
Protocol: as §1

HilD [4] = molecular target: T5, HilD (Salmonella typhimurium, UniProt P0CL08, R267A); assay: HilD half-life (degradation) assay by western blot; format: cell-based; details: HilD R267A-3XFLAG; 20 μM fatty acid
T5 construct: hilD with a C-terminal 3XFLAG tag was cloned into pWSK29 under control of the tetRA promoter; expressed in transfected cells; host or cells: Salmonella Typhimurium strain carrying pWSK29-PtetRA-hilD-3XFLAG (background with chromosomal hilD, hilC and rtsA null)
T5 sequence (P0CL08 1-309 R267A): T1 sequence (P0CL08 1-309 K293A) with R267A, A293K
Protocol: as §1

Row | Structure (SMILES) | binding in ELISA (in words) (HilD^K293A) | HilD degradation (HilD [1]) | HilD degradation (HilD [2]) | HilD degradation (HilD [3]) | HilD degradation (HilD [4]) | Kd (HilD^K293A; plates pre-adsorbed with 10 μM fatty acid) [µM]
1 | CCCCCCCCCCCCC/C=C\C(=O)O [c2-HDA, cis-2-hexadecenoic acid] | negligible binding | degraded as rapidly as wild type HilD | protected from degradation | degraded as rapidly as wild type HilD | protected from degradation | 
2 | CCCCCCCCCCCCC/C=C/C(=O)O [t2-HDA, trans-2-hexadecenoic acid] |  | escaped degradation | rapidly degraded | escaped degradation | escaped degradation | 16.7
